These results are taken from US10011615B2, “Heterobicyclo-substituted [1,2,4]triazolo[1,5-c]quinazolin-5-amine compounds with A2A anatagonist properties” (Merck Sharp & Dohme Corp., priority 2012, dated 2018).

One may read the EC50 as the concentration giving half of the maximal effect.

Each structure is given as a SMILES string. Several values for one entry are separate records, joined by “and”; a condition that tells them apart may be missing. Equal entries are not always repeated.

The experiment deals with T1, human A2a receptor (Homo sapiens, UniProt P29274).
T1 construct: purchased Perkin-Elmer RBHA2AM400UA; host or cells: HEK293 cell membranes
T1 sequence (P29274 whole entry): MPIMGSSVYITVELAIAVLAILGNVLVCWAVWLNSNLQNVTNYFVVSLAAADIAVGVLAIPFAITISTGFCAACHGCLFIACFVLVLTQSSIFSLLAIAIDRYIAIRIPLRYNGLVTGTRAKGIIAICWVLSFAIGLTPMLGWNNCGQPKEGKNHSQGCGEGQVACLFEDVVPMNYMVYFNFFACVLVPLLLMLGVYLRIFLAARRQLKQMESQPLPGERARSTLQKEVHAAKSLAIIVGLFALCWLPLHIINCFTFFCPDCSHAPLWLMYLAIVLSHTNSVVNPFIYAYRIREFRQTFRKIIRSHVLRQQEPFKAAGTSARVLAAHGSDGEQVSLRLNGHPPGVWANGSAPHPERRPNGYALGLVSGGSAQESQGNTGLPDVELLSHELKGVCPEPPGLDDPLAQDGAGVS
The experiment is described as follows: A2a receptor competition binding assay using Scintillation Proximity technology. The conditions noted are these: membranes from HEK293 cells expressing human A2a receptor; 0.5 nM tritiated radioligand; SPA beads; 1 h room temperature. The essentials:
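Membranes of HEK293 cells expressing human A2a, pretreated with adenosine deaminase, incubated 1 h at room temperature with 0.5 nM tritiated pyrazolotriazolopyrimidine antagonist (final) and compound (3000 to 0.15 nM) on WGA SPA beads in Ca/Mg-free PBS with 10 mM MgCl2. Ki from EC50 via Cheng-Prusoff.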
Background: In a scintillation proximity assay essentially only radioactivity close to the scintillant gives light.
`Nc1nc2cc(F)ccc2c2nc(CCN3Cc4cccc(F)c4C3)nn12` [Ex-96] gave a concentration for a half-maximal effect (EC50) of 56.2 nM.

The molecule `COc1ccc2c(nc(N)n3nc(CCN4Cc5cccnc5C4)nc23)c1OC` [Ex-97] had an EC50 of 238 nM.

As to `COc1cc(F)cc2c1nc(N)n1nc(CCN3Cc4cccnc4C3)nc21` [Ex-98], the concentration for a half-maximal effect (EC50) is 19 nM.

On to `Nc1nc2cc(F)c(F)cc2c2nc(CCN3Cc4cccnc4C3)nn12` [Ex-99], for which the EC50 was 112 nM.

On to `Nc1nc2c(F)cc(F)cc2c2nc(CCN3Cc4cccnc4C3)nn12` [Ex-100], for which the EC50 worked out at 31.2 nM.

`COc1cccc2c1nc(N)n1nc(C[C@H](C(F)F)N3Cc4cccnc4C3)nc21` [Ex-102] showed an EC50 of 55.2 nM.

In the case of `COc1cccc2c1nc(N)n1nc(C[C@@H](C(F)F)N3Cc4cccnc4C3)nc21` [Ex-103], the EC50 came out at 8.3 nM.

As for `COc1cccc2c1nc(N)n1nc(CC(CF)N3Cc4cccnc4C3)nc21` (stereo not shown) [Ex-104], the EC50 is 10.1 nM and 14.3 nM.

Turning to `COc1cccc2c1nc(N)n1nc(C[C@H](C)N3Cc4cccnc4C3)nc21` [Ex-106], the response was half-maximal at 19.5 nM (EC50).

`COc1cccc2c1nc(N)n1nc(C[C@@H](C)N3Cc4cccnc4C3)nc21` [Ex-107] showed an EC50 of 6.9 nM.

`COc1cccc2c1nc(N)n1nc(CC(N3Cc4cccnc4C3)C(F)(F)F)nc21` (stereo not shown) [Ex-108] gave an EC50 of 17.9 nM.

With `COc1cccc2c1nc(N)n1nc(C[C@H](N3Cc4cccnc4C3)C(F)(F)F)nc21` [Ex-109], the EC50 was 12.2 nM.

`COc1cccc2c1nc(N)n1nc(C[C@@H](N3Cc4cccnc4C3)C(F)(F)F)nc21` [Ex-110]: the EC50 was 39.9 nM.

Consider `CCC(Cc1nc2c3cccc(OC)c3nc(N)n2n1)N1Cc2cccnc2C1` (stereo not shown) [Ex-111], for which the EC50 stood at 11.9 nM.

`CC[C@H](Cc1nc2c3cccc(OC)c3nc(N)n2n1)N1Cc2cccnc2C1` [Ex-112] returned an EC50 of 4.9 nM.

Molecule `CC[C@@H](Cc1nc2c3cccc(OC)c3nc(N)n2n1)N1Cc2cccnc2C1` [Ex-113] displayed an EC50 of 22.8 nM.

As for `COc1cccc2c1nc(N)n1nc(CC(C)N3Cc4ccc(F)cc4C3)nc21` (stereo not shown) [Ex-114], the EC50 was 4.3 nM.

Molecule `CCCC(Cc1nc2c3cccc(OC)c3nc(N)n2n1)N1Cc2cccnc2C1` (stereo not shown) [Ex-115] yielded an EC50 of 21.6 nM.

The molecule `COc1cccc2c1nc(N)n1nc(CN3Cc4ccc(F)cc4C3)nc21` [Ex-117, 2-((5-fluoroisoindolin-2-yl)methyl)-7-methoxy-[1,2,4]triazolo[1,5-c]quinazolin-5-amine] registered an EC50 of 5.9 nM.

Regarding `COc1cccc2c1nc(N)n1nc(CN3Cc4cccnc4C3)nc21` [Ex-118, 2-((5H-pyrrolo[3,4-b]pyridin-6(7H)-yl)methyl)-7-methoxy-[1,2,4]triazolo[1,5-c]quinazolin-5-amine], the EC50 was found to be 5.4 nM.

In turn, `COc1cccc2c1nc(N)n1nc(CN3CCCc4ccccc43)nc21` [Ex-119, 2-((3,4-dihydroquinolin-1(2H)-yl)methyl)-7-methoxy-[1,2,4]triazolo[1,5-c]quinazolin-5-amine] displayed an EC50 of 2.1 nM.

`COc1cccc2c1nc(N)n1nc(CN3CCOc4ccccc43)nc21` [Ex-120, 2-((2H-benzo[b][1,4]oxazin-4(3H)-yl)methyl)-7-methoxy-[1,2,4]triazolo[1,5-c]quinazolin-5-amine] gave an EC50 of 1.5 nM.

Consider `COc1cccc2c1nc(N)n1nc(CN3CCc4ccccc4C3)nc21` [Ex-121], for which the EC50 was 0.8 nM.

`COc1cccc2c1nc(N)n1nc(CN3CCc4cc(C#N)ccc4C3)nc21` [Ex-122, 2-((5-amino-7-methoxy-[1,2,4]triazolo[1,5-c]quinazolin-2-yl)methyl)-1,2,3,4-tetrahydroisoquinoline-6-carbonitrile] returned an EC50 of 6 nM.

`COc1cccc2c1nc(N)n1nc(CN3CCc4cccnc4C3)nc21` [Ex-123, 2-((5,6-dihydro-1,7-naphthyridin-7(8H)-yl)methyl)-7-methoxy-[1,2,4]triazolo[1,5-c]quinazolin-5-amine]: it took 5.6 nM to reach a half-maximal effect (EC50).

The molecule `COc1cccc2c1nc(N)n1nc(CN3CCc4ccncc4C3)nc21` [Ex-125, 2-((3,4-dihydro-2,7-naphthyridin-2(1H)-yl)methyl)-7-methoxy-[1,2,4]tri azolo[1,5-c]quinazolin-5-amine] had an EC50 of 27.3 nM.

`COc1cccc2c1nc(N)n1nc(CN3CCc4cccc(CN5CCN(c6ccccn6)CC5)c4C3)nc21` [Ex-126, 7-methoxy-2-((8-((4-(pyridin-2-yl)piperazin-1-yl)methyl)-3,4-dihydroisoquinolin-2(1H)-yl)methyl)-[1,2,4]triazolo[1,5-c]quinazolin-5-amine] registered an EC50 of 31.6 nM.

For `COc1cccc2c1nc(N)n1nc(CN3Cc4ccc(C(F)(F)F)cc4C3)nc21` [Ex-127, 7-methoxy-2-((2,3,4,5-(trifluoromethyl)isoindolin-2-yl)methyl)-[1,2,4]triazolo[1,5-c]quinazolin-5-amine], it took 8.5 nM to reach a half-maximal effect (EC50).

`COc1cccc2c1nc(N)n1nc(CN3CCCCc4ccccc43)nc21` [Ex-128, 7-methoxy-2-((2,3,4,5-tetrahydro-1H-benzo[b]azepin-1-yl)methyl)-[1,2,4]biazolo[1,5-c]quinazolin-5-amine]: the EC50 was determined as 2 nM.

Consider `COc1cccc2c1nc(N)n1nc(CN3CCc4ncc(C(F)(F)F)cc4C3)nc21` [Ex-129, 7-methoxy-2-((3-(trifluoromethyl)-7,8-dihydro-1,6-naphthyridin-6(5H)-yl)methyl)-[1,2,4]tria.zolo[1,5-c]quinazolin-5-amine], for which it took 40.8 nM to reach a half-maximal effect (EC50).

`COc1cccc2c1nc(N)n1nc(CN3CCc4cc(F)ccc4C3)nc21` [Ex-130, 2-((6-fluoro-3,4-dihydroisoquinolin-2(1H)-yl)methyl)-7-methoxy-[1,2,4]triazolo[1,5-c]quinazolin-5-amine] registered an EC50 of 20.5 nM.

`COc1cccc2c1nc(N)n1nc(CN3CCc4ccccc4CC3)nc21` [Ex-131, 2-((4,5-dihydro-1H-benzo[d]azepin-3(2H)-yl)methyl)-7-methoxy-[1,2,4]triazolo[1,5-c]quinazolin-5-amine]: the EC50 was determined as 16 nM.

The molecule `COc1cccc2c1nc(N)n1nc(CN3CCCc4ccccc4C3)nc21` [Ex-132, 2-((4,5-dihydro-1H-benzo[c]azepin-2(3H)-yl)methyl)-7-methoxy-[1,2,4]triazolo[1,5-c]quinazolin-5-amine] returned an EC50 of 7.9 nM.

`COc1cccc2c1nc(N)n1nc(CN3CCCc4ncccc43)nc21` [Ex-133, 2-((3,4-dihydro-1,5-naphthyridin-1(2H)-yl)methyl)-7-methoxy-[1,2,4]triazolo[1,5-c]quinazolin-5-amine] came in with an EC50 of 27.8 nM.

Take `COc1cccc2c1nc(N)n1nc(CN3CCCc4cnccc43)nc21` [Ex-134, 2-((3,4-dihydro-1,6-naphthyridin-1(2H)-yl)methyl)-7-methoxy-[1,2,4]triazolo[1,5-c]quinazolin-5-amine]: the EC50 was 6.7 nM.

For the molecule `COc1cccc2c1nc(N)n1nc(CN3CCCc4ccncc43)nc21` [Ex-135, 2-((3,4-dihydro-1,7-naphthyridin-1(2H)-yl)methyl)-7-methoxy-[1,2,4]triazolo[1,5-c]quinazolin-5-amine], the EC50 is 11.8 nM.

Molecule `COc1cccc2c1nc(N)n1nc(CN3CCN(C)Cc4cc(Cl)ccc43)nc21` [Ex-136, 2-((7-chloro-4-methyl-2,3,4,5-tetrahydro-1H-benzo[e][1,4]diazepin-1-yl)methyl)-7-methoxy-[1,2,4]triazolo[1,5-c]quinazolin-5-amine] gave an EC50 of 191 nM.
